Assay results published in patent US9790219B2, “Compounds, compositions, and methods for increasing CFTR activity” (Proteostasis Therapeutics, Inc., priority 2014, dated 2017).

Key:
ΔF508-CFTR [1] = molecular target: T1, ΔF508-CFTR (Homo sapiens, UniProt P13569, DEL508-508); experiment: Ussing measurements; format: cell-based; settings: CFTRinh-172 inhibitable short-circuit current, primary hBE homozygous ΔF508, 24 h treatment
T1 construct: Primary lung epithelial cells homozygous for the Cystic Fibrosis-causing ΔF508 mutation; endogenous in cells; host or cells: primary human lung (bronchial) epithelial cells homozygous for ΔF508, differentiated at air-liquid interface
T1 sequence (P13569 with tags, fused parts or gaps DEL508-508): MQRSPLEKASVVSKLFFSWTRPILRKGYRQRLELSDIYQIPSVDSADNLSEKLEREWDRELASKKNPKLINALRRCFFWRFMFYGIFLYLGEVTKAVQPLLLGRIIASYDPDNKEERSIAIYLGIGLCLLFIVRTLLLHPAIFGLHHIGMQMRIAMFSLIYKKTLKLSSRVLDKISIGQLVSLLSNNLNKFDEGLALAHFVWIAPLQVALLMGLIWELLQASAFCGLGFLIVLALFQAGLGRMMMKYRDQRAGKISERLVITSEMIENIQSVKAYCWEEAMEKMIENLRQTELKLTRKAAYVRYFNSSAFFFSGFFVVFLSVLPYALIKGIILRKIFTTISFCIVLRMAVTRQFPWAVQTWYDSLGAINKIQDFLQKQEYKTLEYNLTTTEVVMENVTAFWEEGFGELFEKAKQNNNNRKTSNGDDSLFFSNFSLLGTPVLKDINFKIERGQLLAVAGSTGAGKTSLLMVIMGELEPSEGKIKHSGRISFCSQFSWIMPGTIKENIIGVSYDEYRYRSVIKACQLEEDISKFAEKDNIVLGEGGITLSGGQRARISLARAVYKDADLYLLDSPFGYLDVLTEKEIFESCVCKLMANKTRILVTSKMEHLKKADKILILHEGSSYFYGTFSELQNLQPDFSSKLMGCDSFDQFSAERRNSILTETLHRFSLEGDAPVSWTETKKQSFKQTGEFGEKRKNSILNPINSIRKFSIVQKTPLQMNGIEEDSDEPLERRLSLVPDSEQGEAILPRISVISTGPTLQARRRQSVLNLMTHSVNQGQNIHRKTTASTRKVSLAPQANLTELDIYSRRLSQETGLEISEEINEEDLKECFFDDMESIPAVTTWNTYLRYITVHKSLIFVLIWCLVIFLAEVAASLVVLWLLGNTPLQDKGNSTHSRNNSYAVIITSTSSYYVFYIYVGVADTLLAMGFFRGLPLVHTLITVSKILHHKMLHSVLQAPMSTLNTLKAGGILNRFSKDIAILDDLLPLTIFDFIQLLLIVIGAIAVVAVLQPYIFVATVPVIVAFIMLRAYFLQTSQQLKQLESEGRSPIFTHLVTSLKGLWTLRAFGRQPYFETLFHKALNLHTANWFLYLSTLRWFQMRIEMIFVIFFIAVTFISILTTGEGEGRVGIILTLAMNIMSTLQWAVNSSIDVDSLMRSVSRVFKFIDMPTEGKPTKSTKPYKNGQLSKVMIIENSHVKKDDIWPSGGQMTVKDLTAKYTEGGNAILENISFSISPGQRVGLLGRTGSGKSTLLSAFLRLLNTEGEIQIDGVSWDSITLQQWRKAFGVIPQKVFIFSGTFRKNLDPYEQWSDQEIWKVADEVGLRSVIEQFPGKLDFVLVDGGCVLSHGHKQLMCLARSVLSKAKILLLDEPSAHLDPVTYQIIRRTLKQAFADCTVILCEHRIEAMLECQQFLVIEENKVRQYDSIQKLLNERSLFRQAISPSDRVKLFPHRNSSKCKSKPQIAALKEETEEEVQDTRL
Description: As discussed above, Ussing measurements can be used to measure CFTR activity. In this method, primary lung epithelial cells (hBEs) homozygous for the Cystic Fibrosis-causing ΔF508 mutation are differentiated for a minimum of 4 weeks in an air-liquid interface on SnapWell filter plates prior to the Ussing measurements. Cells are apically mucus-washed for 30 minutes prior to treatment with compounds. The basolateral media is removed and replaced with media containing the compound of interest diluted to its final concentration from DMSO stocks. Treated cells are incubated at 37° C. and 5% CO2 for 24 hours. At the end of the treatment period, the cells on filters are transferred to the Ussing chamber and equilibrated for 30 minutes. The short-circuit current is measured in voltage clamp-mode (Vhold=0 mV), and the entire assay is conducted at a temperature of 36° C.-36.5° C. Once the voltages stabilized, the chambers are clamped, and data is recorded by pulse readings every 5 seconds. Following baseline current stabilization, the following additions can be applied and the changes in current and resistance of the cells can be monitored: • 1. Benzamil to the apical chamber to inhibit ENaC sodium channel. • 2. Forskolin to both chambers to activate ΔF508-CFTR by phosphorylation. • 3. Genistein to both chambers to potentiate ΔF508-CFTR channel opening. • 4. CFTRinh-172 to the apical chamber to inhibit ΔF508-CFTR Cl-conductance.
The inhibitable current (that current that is blocked by CFTRinh-172) is measured as the specific activity of the ΔF508-CFTR channel, and increases in response to compound in this activity over that observed in vehicle-treated samples are identified as the correction of ΔF508-CFTR function imparted by the compound tested.

ΔF508-CFTR [2] = molecular target: T1, ΔF508-CFTR; experiment: hBE equivalent current (Ieq) assay; format: cell-based; settings: AUC of equivalent chloride current, primary hBE homozygous ΔF508, 24 h treatment
Description: Primary lung epithelial cells homozygous for the Cystic Fibrosis-causing ΔF508 mutation were differentiated for a minimum of 4 weeks in an air-liquid interface on Costar 24 well HTS filter plates prior to the equivalent current (Ieq) measurements. Cells were apically mucus-washed for 30 minutes 24 h prior to treatment with compounds. The basolateral media was removed and replaced with media containing the compound of interest diluted to its final concentration from DMSO stocks. Treated cells were incubated at 37° C. and 5% CO2 for 24 hours. At the end of the treatment period, the media was changed to the Ieq experimental solution for 30 minutes before the experiment and plates are maintained in a CO2-free incubator during this period. The plates containing the cells were then placed in pre-warmed heating blocks at 36° C.±0.5 for 15 minutes before measurements are taken. The transepithelial voltage (VT) and conductance (GT) were measured using a custom 24 channel current clamp (TECC-24) with 24 well electrode manifold. The Ieq assay measurements were made following additions with standardized time periods: • 1. The baseline VT and GT values were measured for approximately 20 minutes. • 2. Benzamil was added to block ENaC for 15 minutes. • 3. Forskolin plus VX-770 were added to maximally activate ΔF508-CFTR for 27 minutes. • 4. Bumetanide was added to inhibit the NaK2Cl cotransporter and shut-off secretion of chloride.
The activity data captured was the area under the curve (AUC) for the traces of the equivalent chloride current. The AUC was collected from the time of the forskolin/VX-770 addition until the inhibition by bumetanide addition. Correction in response to compound treatment was scored as the increase in the AUC for compound-treated samples over that of vehicle-treated samples. The results are shown below in Table 2 (++indicates activity ≧25% run at 10 uM of VX-809 at 1 uM; +indicates activity 10 to <25% run at 10 uM of VX-809 at 1 uM; ** indicates activity ≧200% of VX-809 (1 uM) with compound at 10 uM and VX-809 at 1 uM; * indicates activity 100-200% of VX-809 (1 uM) with compound at 10 uM and VX-809 at 1 uM)

[3] = compound alone at 10 uM, relative to VX-809 at 1 uM
[4] = compound at 10 uM together with VX-809 at 1 uM, relative to VX-809 (1 uM)

Compound	Ussing (ΔF508-CFTR [1]; [3])	Ussing (ΔF508-CFTR [1]; [4])	Ieq Activity (ΔF508-CFTR [2]; [3])	Ieq Activity (ΔF508-CFTR [2]; [4])
O=C(NCCc1nnc(CO)o1)c1cc(-c2ccccc2)on1 [Compound A1, N-(2-(5-(hydroxymethyl)-1,3,4-oxadiazol-2-yl)ethyl)-5-phenylisoxazole-3-carboxamide]	++ (++indicates activity ≧25% run at 10 uM of VX-809 at 1 uM)	** (** indicates activity ≧200% of VX-809 (1 uM) with compound at 10 uM and VX-809 at 1 uM)	++ (++indicates activity ≧25% run at 10 uM of VX-809 at 1 uM)	** (** indicates activity ≧200% of VX-809 (1 uM) with compound at 10 uM and VX-809 at 1 uM)
C[C@H](O)c1nnc(CCNC(=O)c2cc(-c3ccccc3)on2)s1 [Compound A17, (S)-N-(2-(5-(1-hydroxyethyl)-1,3,4-thiadiazol-2-yl)ethyl)-5-phenylisoxazole-3-carboxamide]		** (** indicates activity ≧200% of VX-809 (1 uM) with compound at 10 uM and VX-809 at 1 uM)		** (** indicates activity ≧200% of VX-809 (1 uM) with compound at 10 uM and VX-809 at 1 uM)
O=C(NCCc1nnc(CO)s1)c1cc(-c2ccccc2)on1 [Compound A2, N-(2-(5-(hydroxymethyl)-1,3,4-thiadiazol-2-yl)ethyl)-5-phenylisoxazole-3-carboxamide]	++ (++indicates activity ≧25% run at 10 uM of VX-809 at 1 uM)	** (** indicates activity ≧200% of VX-809 (1 uM) with compound at 10 uM and VX-809 at 1 uM)	++ (++indicates activity ≧25% run at 10 uM of VX-809 at 1 uM)	** (** indicates activity ≧200% of VX-809 (1 uM) with compound at 10 uM and VX-809 at 1 uM)
O=C(NCCc1nnc([C@H](O)CO)o1)c1cc(-c2ccccc2)on1 [Compound A19, (R)-N-(2-(5-(1,2-dihydroxyethyl)-1,3,4-oxadiazol-2-yl)ethyl)-5-phenylisoxazole-3-carboxamide]		** (** indicates activity ≧200% of VX-809 (1 uM) with compound at 10 uM and VX-809 at 1 uM)		** (** indicates activity ≧200% of VX-809 (1 uM) with compound at 10 uM and VX-809 at 1 uM)
O=C(NCCc1nnc([C@@H](O)CO)o1)c1cc(-c2ccccc2)on1 [Compound A22, (S)-N-(2-(5-(1,2-dihydroxyethyl)-1,3,4-oxadiazol-2-yl)ethyl)-5-phenyl isoxazole-3-carboxamide carboxamide]		** (** indicates activity ≧200% of VX-809 (1 uM) with compound at 10 uM and VX-809 at 1 uM)		** (** indicates activity ≧200% of VX-809 (1 uM) with compound at 10 uM and VX-809 at 1 uM)
O=C(NCCc1nnc([C@H](O)CO)s1)c1cc(-c2ccccc2)on1 [Compound A20, (R)-N-(2-(5-(1,2-dihydroxyethyl)-1,3,4-thiadiazol-2-yl)ethyl)-5-phenylisoxazole-3-carboxamide]		** (** indicates activity ≧200% of VX-809 (1 uM) with compound at 10 uM and VX-809 at 1 uM)		** (** indicates activity ≧200% of VX-809 (1 uM) with compound at 10 uM and VX-809 at 1 uM)
O=C(NCCc1nnc([C@@H](O)CO)s1)c1cc(-c2ccccc2)on1 [Compound A21, (S)-N-(2-(5-(1,2-dihydroxyethyl)-1,3,4-thiadiazol-2-yl)ethyl)-5-phenyl isoxazole-3-carboxamide]		** (** indicates activity ≧200% of VX-809 (1 uM) with compound at 10 uM and VX-809 at 1 uM)		** (** indicates activity ≧200% of VX-809 (1 uM) with compound at 10 uM and VX-809 at 1 uM)
